Results taken from patent US20250066286A1, “COMPOSITIONS OF (Z)-ENDOXIFEN AND METHODS OF ENRICHMENT THEREOF” (Atossa Therapeutics, Inc., priority 2022, published 2025).
In brackets after ≈: the same amount, converted by molar mass. Like-named read-outs stand apart in the source and are kept apart here.

Test: Solubility testing of (Z)-endoxifen in single solvents
Format: physicochemical
Conditions: for solubility at 15 min: 25 °C, room temperature; for solubility at 15 min / solubility: thermodynamic from solid
Experimental: To test the solubility of (Z)-endoxifen in varying conditions, 10 mg of (Z)-endoxifen was added to a stoppered tube, and 0.01 ml of the selected solvent was added (1000 mg/ml solution). The tube was shaken vigorously for 1 minute and then incubated at a constant temperature of 25.0° C. for 15 minutes. If the solid was not completed dissolved, the tube was shaken again and placed at the constant temperature of 25.0° C. for another 15 minutes. If the solid was completely dissolved at this step, it was considered to be very soluble in the selected solvent system. If the solid was not dissolved by this step, another 0.09 ml was added (yielding a 100 mg/ml solution) and an attempt to further dissolve the solid was made by the same steps of shaking and incubating twice over as described previously. If the solid was completely dissolved at this step, it was considered freely soluble. If the solid was not dissolved by this step another 0.2 ml was added (yielding a 33.3 mg/ml solution) and an attempt to further dissolve the solid was made by the same steps of shaking and incubating twice over as described previously. If the solid was completely dissolved at this step, it was considered soluble. If the solid was not dissolved by this step another, 0.7 ml was added (yielding a 10 mg/ml solution) and an attempt to further dissolve the solid was made by the same steps of shaking and incubating twice over as described previously. If the solid was completely dissolved at this step, it was considered sparingly soluble. If the solid was not dissolved by this step the sample was considered to be slightly soluble or very slightly soluble and the solution was heated until the boiling point of the solvent system (max 100° C.) under stirring with a rate of 0.5° C. per minute temperature ramp rate to verify the solubility at high temperatures. The hot solution was after cooled to room temperature with a cooling rate of 0.5° C. per minute to verify if the sample had precipitated after up to 18 hours under magnetic stirring. The same procedure was also used for the solvent mixture solubility tests. The concentrations investigated for the solvent mixture stability were 40 mg/ml and 100 mg/ml. Some solutions in the following example were precipitated by cooling of the solution from a temperature between 50-100° C. to between 10-25° C. at a rate ranging from −0.2 to −0.5° C./minute resulting in a precipitate.

[1] = solvent butyl acetate, 100 mg/mL
[2] = solvent ethyl acetate, 100 mg/mL
[3] = solvent methyl isobutyl ketone (4-methyl-2-pentanone), 100 mg/mL
[4] = solvent methyl isobutyl ketone (4-methyl-2-pentanone), 200 mg/mL

## CC/C(=C(\c1ccc(O)cc1)c1ccc(OCCNC)cc1)c1ccccc1 [(Z)-endoxifen, (Z)-4-(1-(4-(2-(methylamino)ethoxy)phenyl)-2-phenylbut-1-enyl)phenol]
Solvent butyl acetate, 10 mg/mL
  Solubility HT (10 mg/mL): Clear point: 50 °C
Solvent butyl acetate, 10 mg/mL, high temperature
  Solubility HT (10 mg/mL): Sol. HT: YES
Solvent butyl acetate, 20 mg/mL
  Solubility HT (20 mg/mL): Clear point: 56.8 °C
Solvent butyl acetate, 20 mg/mL, high temperature
  Solubility HT (20 mg/mL): Sol. HT: YES
[1]
  Solubility HT (100 mg/mL): Clear point: 94.5 °C
  Solubility HT (100 mg/mL): Cloudy point: 25 °C
Solvent butyl acetate, 100 mg/mL, high temperature
  Solubility HT (100 mg/mL): Sol. HT: YES
Solvent butyl acetate, 100 mg/mL, on cooling
  Solubility HT (100 mg/mL): Re-PPT: YES
Solvent ethanol, 10 mg/mL
  Solubility HT (10 mg/mL): Clear point: 34 °C
Solvent ethanol, 10 mg/mL, high temperature
  Solubility HT (10 mg/mL): Sol. HT: YES
Solvent ethanol, 20 mg/mL
  Solubility HT (20 mg/mL): Clear point: 34 °C
Solvent ethanol, 20 mg/mL, high temperature
  Solubility HT (20 mg/mL): Sol. HT: YES
Solvent ethanol, 20 mg/mL, on cooling
  Solubility HT (20 mg/mL): Re-PPT: YES
Solvent ethanol, 100 mg/mL
  Solubility HT (100 mg/mL): Clear point: 66 °C
  Solubility HT (100 mg/mL): Cloudy point: 39.7 °C
Solvent ethanol, 100 mg/mL, high temperature
  Solubility HT (100 mg/mL): Sol. HT: YES
Solvent ethanol, 100 mg/mL, on cooling
  Solubility HT (100 mg/mL): Re-PPT: YES
Solvent ethyl acetate, 10 mg/mL
  Solubility HT (10 mg/mL): Clear point: 38 °C
Solvent ethyl acetate, 10 mg/mL, high temperature
  Solubility HT (10 mg/mL): Sol. HT: YES
Solvent ethyl acetate, 20 mg/mL
  Solubility HT (20 mg/mL): Clear point: 49.2 °C
Solvent ethyl acetate, 20 mg/mL, high temperature
  Solubility HT (20 mg/mL): Sol. HT: YES
[2]
  Solubility HT (100 mg/mL): Clear point: 74.4 °C
  Solubility HT (100 mg/mL): Cloudy point: 54.2 °C
Solvent ethyl acetate, 100 mg/mL, high temperature
  Solubility HT (100 mg/mL): Sol. HT: YES
Solvent ethyl acetate, 100 mg/mL, on cooling
  Solubility HT (100 mg/mL): Re-PPT: YES
Solvent methyl isobutyl ketone (4-methyl-2-pentanone), 10 mg/mL
  Solubility HT (10 mg/mL): Clear point: 44 °C
Solvent methyl isobutyl ketone (4-methyl-2-pentanone), 10 mg/mL, high temperature
  Solubility HT (10 mg/mL): Sol. HT: YES
Solvent methyl isobutyl ketone (4-methyl-2-pentanone), 20 mg/mL
  Solubility HT (20 mg/mL): Clear point: 49.3 °C
Solvent methyl isobutyl ketone (4-methyl-2-pentanone), 20 mg/mL, high temperature
  Solubility HT (20 mg/mL): Sol. HT: YES
[3]
  Solubility HT (100 mg/mL): Clear point: 74.8 °C
  Solubility HT (100 mg/mL): Re-PPT after 18 hours at −20° C.: YES
Solvent methyl isobutyl ketone (4-methyl-2-pentanone), 100 mg/mL, high temperature
  Solubility HT (100 mg/mL): Sol. HT: YES
[4]
  Solubility HT (200 mg/mL): Clear Point: 84 °C
  Solubility HT (200 mg/mL): Cloudy point: 48.5 °C
Solvent methyl isobutyl ketone (4-methyl-2-pentanone), 200 mg/mL, high temperature
  Solubility HT (200 mg/mL): Sol. HT: YES
Solvent methyl isobutyl ketone (4-methyl-2-pentanone), 200 mg/mL, on cooling
  Solubility HT (200 mg/mL): Re-PPT: YES
Solvent toluene, 10 mg/mL
  Solubility HT (10 mg/mL): Clear point: 66 °C
Solvent toluene, 10 mg/mL, high temperature
  Solubility HT (10 mg/mL): Sol. HT: YES
Solvent toluene, 20 mg/mL
  Solubility HT (20 mg/mL): Clear point: 77.8 °C
Solvent toluene, 20 mg/mL, high temperature
  Solubility HT (20 mg/mL): Sol. HT: YES
Solvent toluene, 100 mg/mL
  Solubility HT (100 mg/mL): Clear point: 96.6 °C
  Solubility HT (100 mg/mL): Cloudy point: 25 °C
Solvent toluene, 100 mg/mL, high temperature
  Solubility HT (100 mg/mL): Sol. HT: YES
Solvent toluene, 100 mg/mL, on cooling
  Solubility HT (100 mg/mL): Re-PPT: YES
t-butyl methyl ether, organic solvent or mixture, t-butyl methyl ether, read-out: Solubility
  solubility at 15 min: < 10000 µg/mL
t-butyl methyl ether, organic solvent or mixture, t-butyl methyl ether, high temperature, read-out: Solubility
  solubility: < 10000 µg/mL
tetrahydrofuran, organic solvent or mixture, solvent tetrahydrofuran, read-out: Solubility at RT
  solubility at 15 min: 111000 to 125000 µg/mL (≈ 297 to 335 mM)
toluene, organic solvent or mixture, solvent toluene, read-out: Solubility at RT
  solubility at 15 min: 10000 µg/mL (≈ 26.8 mM)
toluene, organic solvent or mixture, toluene, read-out: Solubility
  solubility at 15 min: 10000 µg/mL (≈ 26.8 mM)
toluene, organic solvent or mixture, toluene, high temperature, read-out: Solubility
  solubility: 20000 to 100000 µg/mL (≈ 53.5 to 268 mM)
water, water, solvent water, read-out: Solubility at RT
  solubility at 15 min: < 10000 µg/mL
water, water, water, read-out: Solubility
  solubility at 15 min: < 10000 µg/mL
water, 100 °C, water, solvent water, 10 mg/mL, high temperature, read-out: Solubility HT (10 mg/mL): Sol. HT
  solubility: < 10000 µg/mL
water, 100 °C, water, water, high temperature, read-out: Solubility
  solubility: < 10000 µg/mL
